# Columns and labels:
# [1] = tested on: 60 human cancer cell lines; assay: NCI-60 SRB screen, whole panel; assay type: cell-based; conditions: Homo sapiens, 48 h; One Dose Mean Graph, Conc 1.00E-5 Molar; read-out: Mean Growth Percent
# UO-31 = assay: NCI-60 SRB screen; assay type: cell-based; conditions: Homo sapiens; UO-31, 10^–5 Molar; read-out: Percent growth inhibition
# Method: (§1) All newly synthesized compounds were selected and screened for anticancer activity against 60 human cancer cell lines representing 9 types of tumors including leukemia, melanoma, lung, colon, CNS, ovarian, renal, prostate, and breast cancers at the National Cancer Institute (NCI), Bethesda, USA. Screening was performed utilizing a single dose (10^−5 M concentration) and cells were incubated for 48 h. The end point was determined using sulforhodamine B (SRB) dye.
# (§2) In this study, all the 16 newly synthesized compounds were submitted to the National Cancer Institute (USA) for anticancer evaluation and were selected and evaluated using 60 different human tumor cell lines representing lung, colon, CNS, ovarian, renal, prostate, breast cancers as well as leukemia and melanoma. A single dose (10^–5 Molar) was used for the initial screening for evaluation of anticancer activity. The 60 human cancer cell lines were provided by the national cancer institute biomedical research campus in Frederick, Maryland.
# (§3) 60 different human cancer cell lines were utilized to screen the newly synthesized compounds for anticancer activity according to the previously reported standard procedure[24]–[26] as follows: • 96 well microtiter plates were used to inoculate the cells at […] ranging from 4000–5000 cells/well depending on the replication time of individual cell lines. Roswell Park Memorial Institute culture medium (RPMI 1640 medium) containing 2 mM L-glutamine and fetal bovine serum was used to grow the cells at 37 °C, 5% CO2, 95% air and 100% relative humidity for 24 h. • Fixation of cells in two plates of each cell line in situ was done using trichloroacetic acid (TCA). This represented the measurement of cell population at the time of drug addition (Tz). • Dimethyl sulfoxide (DMSO) was used to dissolve the synthesized compounds at 400-fold the desired final maximum concentration and frozen prior to use. This frozen concentrate was melted and diluted to twice the final concentration with complete medium containing 50 µg/mL gentamycin at time of drug addition. • The final compound concentration was obtained by adding 100 µL of the synthesized compounds to the appropriate microtiter wells already containing 100 µL followed by incubation of the plates at 37 °C, 5% CO2, 95% air and 100% relative humidity for 48 h. • Fixation of the cells was achieved by gentle addition of 50 µL of cold 50% (w/v) TCA followed by incubation for 60 min at 4 °C. The supernatant was then discarded and the plates are washed 5 times with tap water and air dried. • Sulphorhodamine B (SRB) solution (100 µL) at 0.4% (w/v) in 1% acetic acid was added to each plate followed by incubation for 10 min at room temperature. The unbound dye was then removed by washing five times with 1% acetic acid and plates were air dried. • Dissolution of the bound stain was done using […] trizma base and the absorbance was read at […] wavelength using an automated plate reader. • The percentage growth inhibition was calculated as follows: Ti-Tz/C-Tz×100forconcentrationswhichTi≥Tz Ti-Tz/Tz×100forconcentrationswhichTi<Tz • Time zero (Tz) • Control growth (C) • Test growth in the presence of drug (Ti)
# SN12C = assay: NCI-60 SRB screen; assay type: cell-based; conditions: Homo sapiens, 10^–5 Molar, read-out: Percent growth inhibition
# Method: as §1, §2, §3
# MCF7 = assay: NCI-60 SRB screen; assay type: cell-based; conditions: Homo sapiens; MCF7, 10^–5 Molar; read-out: Percent growth inhibition
# Method: as §1, §2, §3
# SF-268 = assay: NCI-60 SRB screen; assay type: cell-based; conditions: Homo sapiens; SF-268, 10^–5 Molar; read-out: Percent growth inhibition
# Method: as §1, §2, §3
# HS 578T = assay: NCI-60 SRB screen; assay type: cell-based; conditions: Homo sapiens, 10^–5 Molar, read-out: Percent growth inhibition
# Method: as §1, §2, §3
# HCT-15 = assay: NCI-60 SRB screen; assay type: cell-based; conditions: Homo sapiens; HCT-15, 10^–5 Molar; read-out: Percent growth inhibition
# Method: as §1, §2, §3
# CAKI-1 = assay: NCI-60 SRB screen; assay type: cell-based; conditions: Homo sapiens; CAKI-1, 10^–5 Molar; read-out: Percent growth inhibition
# Method: as §1, §2, §3
# UACC-62 = assay: NCI-60 SRB screen; assay type: cell-based; conditions: Homo sapiens; UACC-62, 10^–5 Molar; read-out: Percent growth inhibition
# Method: as §1, §2, §3
# SNB-75 = assay: NCI-60 SRB screen; assay type: cell-based; conditions: Homo sapiens; SNB-75, 10^–5 Molar; read-out: Percent growth inhibition
# Method: as §1, §2, §3
# K-562 = assay: NCI-60 SRB screen; assay type: cell-based; conditions: Homo sapiens, K562; K-562, 10^–5 Molar; read-out: Percent growth inhibition
# Method: as §1, §2, §3
# U251 = assay: NCI-60 SRB screen; assay type: cell-based; conditions: Homo sapiens, U-251; U251, 10^–5 Molar; read-out: Percent growth inhibition
# Method: as §1, §2, §3
# PC-3 = assay: NCI-60 SRB screen; assay type: cell-based; conditions: Homo sapiens; PC-3, 10^–5 Molar; read-out: Percent growth inhibition
# Method: as §1, §2, §3
# SK-MEL-28 = assay: NCI-60 SRB screen; assay type: cell-based; conditions: Homo sapiens; SK-MEL-28, 10^–5 Molar; read-out: Percent growth inhibition
# Method: as §1, §2, §3
# BT-549 = assay: NCI-60 SRB screen; assay type: cell-based; conditions: Homo sapiens; BT-549, 10^–5 Molar; read-out: Percent growth inhibition
# Method: as §1, §2, §3
# MALME-3M = assay: NCI-60 SRB screen; assay type: cell-based; conditions: Homo sapiens, 10^–5 Molar, read-out: Percent growth inhibition
# Method: as §1, §2, §3
# SF-539 = assay: NCI-60 SRB screen; assay type: cell-based; conditions: Homo sapiens; SF-539, 10^–5 Molar; read-out: Percent growth inhibition
# Method: as §1, §2, §3
# OVCAR-5 = assay: NCI-60 SRB screen; assay type: cell-based; conditions: Homo sapiens; OVCAR-5, 10^–5 Molar; read-out: Percent growth inhibition
# Method: as §1, §2, §3
# NCI-H322M = assay: NCI-60 SRB screen; assay type: cell-based; conditions: Homo sapiens, 10^–5 Molar, read-out: Percent growth inhibition
# Method: as §1, §2, §3
# MDA-MB-435 = assay: NCI-60 SRB screen; assay type: cell-based; conditions: Homo sapiens; MDA-MB-435, 10^–5 Molar; read-out: Percent growth inhibition
# Method: as §1, §2, §3
# MDA-MB-468 = assay: NCI-60 SRB screen; assay type: cell-based; conditions: Homo sapiens; MDA-MB-468, 10^–5 Molar; read-out: Percent growth inhibition
# Method: as §1, §2, §3
# MDA-MB-231/ATCC = assay: NCI-60 SRB screen; assay type: cell-based; conditions: Homo sapiens, 10^–5 Molar, read-out: Percent growth inhibition
# Method: as §1, §2, §3
# 786-0 = assay: NCI-60 SRB screen; assay type: cell-based; conditions: Homo sapiens; 786-0, 10^–5 Molar; read-out: Percent growth inhibition
# Method: as §1, §2, §3
# SF-295 = assay: NCI-60 SRB screen; assay type: cell-based; conditions: Homo sapiens; SF-295, 10^–5 Molar; read-out: Percent growth inhibition
# Method: as §1, §2, §3
# NCI-H23 = assay: NCI-60 SRB screen; assay type: cell-based; conditions: Homo sapiens; NCI-H23, 10^–5 Molar; read-out: Percent growth inhibition
# Method: as §1, §2, §3
# LOX IMVI = assay: NCI-60 SRB screen; assay type: cell-based; conditions: Homo sapiens, 10^–5 Molar, read-out: Percent growth inhibition
# Method: as §1, §2, §3
# OVCAR-8 = assay: NCI-60 SRB screen; assay type: cell-based; conditions: Homo sapiens; OVCAR-8, 10^–5 Molar; read-out: Percent growth inhibition
# Method: as §1, §2, §3
# A498 = assay: NCI-60 SRB screen; assay type: cell-based; conditions: Homo sapiens; A498, 10^–5 Molar; read-out: Percent growth inhibition
# Method: as §1, §2, §3
# OVCAR-4 = assay: NCI-60 SRB screen; assay type: cell-based; conditions: Homo sapiens; OVCAR-4, 10^–5 Molar; read-out: Percent growth inhibition
# Method: as §1, §2, §3
# M14 = assay: NCI-60 SRB screen; assay type: cell-based; conditions: Homo sapiens; M14, 10^–5 Molar; read-out: Percent growth inhibition
# Method: as §1, §2, §3
# NCI-H522 = assay: NCI-60 SRB screen; assay type: cell-based; conditions: Homo sapiens; NCI-H522, 10^–5 Molar; read-out: Percent growth inhibition
# Method: as §1, §2, §3
# ACHN = assay: NCI-60 SRB screen; assay type: cell-based; conditions: Homo sapiens, 10^–5 Molar, read-out: Percent growth inhibition
# Method: as §1, §2, §3
structure (smiles),measurement,setting,value
"CCn1cc(C(=O)O)c(=O)c2cc(F)c(N3CCN(CC(=O)Nc4ccc(S(=O)(=O)Nc5ncccn5)cc4)C(C)C3)c(F)c21 (stereo not shown) [Compound 5e, 1-Ethyl-6,8-difluoro-7-(3-methyl-4-(2-oxo-2-((4-(N-(pyrimidin-2-yl)sulfamoyl)phenyl)amino)ethyl)piperazin-1-yl)-4-oxo-1,4-dihydroquinoline-3-carboxylic acid]",melting point,,282 to 284 °C
same,activity at 10 µM,[1],106%
same,inhibition at 10 µM,UO-31,9.64%
same,inhibition at 10 µM,SN12C,3.07%
same,inhibition at 10 µM,MCF7,5.24%
same,inhibition at 10 µM,SF-268,1.55%
same,inhibition at 10 µM,HS 578T,2.04%
same,inhibition at 10 µM,HCT-15,2.43%
same,inhibition at 10 µM,CAKI-1,7.59%
same,inhibition at 10 µM,UACC-62,7.88%
same,inhibition at 10 µM,SNB-75,6.39%
same,inhibition at 10 µM,K-562,1.07%
"CCn1cc(C(=O)O)c(=O)c2cc(F)c(N3CCN(CC(=O)Nc4ccc(OC)cc4)C(C)C3)c(F)c21 (stereo not shown) [Compound 5c, 1-Ethyl-6,8-difluoro-7-(4-(2-((4-methoxyphenyl)amino)-2-oxoethyl)-3-methylpiperazin-1-yl)-4-oxo-1,4-dihydroquinoline-3-carboxylic acid]",melting point,,196 to 198 °C
same,activity at 10 µM,[1],98.8%
same,inhibition at 10 µM,UO-31,19.1%
same,inhibition at 10 µM,U251,0.32%
same,inhibition at 10 µM,PC-3,4.07%
same,inhibition at 10 µM,SK-MEL-28,5.79%
same,inhibition at 10 µM,BT-549,3.31%
same,inhibition at 10 µM,MALME-3M,3.82%
same,inhibition at 10 µM,MCF7,1.91%
same,inhibition at 10 µM,SF-539,3.21%
same,inhibition at 10 µM,SF-268,8.23%
same,inhibition at 10 µM,OVCAR-5,0.25%
same,inhibition at 10 µM,HS 578T,8.53%
same,inhibition at 10 µM,NCI-H322M,5.28%
same,inhibition at 10 µM,MDA-MB-435,6.19%
same,inhibition at 10 µM,MDA-MB-468,3.75%
same,inhibition at 10 µM,CAKI-1,11.4%
same,inhibition at 10 µM,UACC-62,12.6%
same,inhibition at 10 µM,MDA-MB-231/ATCC,13.7%
same,inhibition at 10 µM,786-0,4.78%
same,inhibition at 10 µM,SF-295,2%
same,inhibition at 10 µM,NCI-H23,0.84%
same,inhibition at 10 µM,LOX IMVI,14%
same,inhibition at 10 µM,OVCAR-8,3.62%
same,inhibition at 10 µM,A498,24.1%
same,inhibition at 10 µM,OVCAR-4,8.21%
same,inhibition at 10 µM,M14,2.85%
same,inhibition at 10 µM,NCI-H522,6.89%
same,inhibition at 10 µM,SNB-75,12.8%
same,inhibition at 10 µM,ACHN,0.45%
same,inhibition at 10 µM,K-562,5.75%

# Reference: PMC10940605, “Design, synthesis and in vitro anticancer activity of some new lomefloxacin derivatives” (Scientific Reports, 2024)
